Laboratory results from the supplement of paper PMC11451515.

Tests used:
Assay in all cases: cell viability relative to DMSO control; higher = less cytotoxic
Details in all cases: 48 h
NOMO1 = tested on: NOMO1
Procedure, shortened: (§1)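 Viability, reported as a per-plate percentage of DMSO wells with cell-free wells as background, came from CellTiter-Glo One luminescence. Reading took place after 48 h at 37°C. Before that, NOMO1 or SEM (500 cells/well) or P12-Ichikawa (1000 cells/well) leukemia cells, adapted for at least four passages in each medium, were seeded in 1536-well plates (5 μl) and pin-dosed with library compounds in DMSO, 47 μM to 0.79 nM over 11 threefold points.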

P12-Ichikawa = tested on: P12-Ichikawa
Procedure, shortened: as §1

SEM cells = tested on: SEM cells
Procedure, shortened: as §1

[1] = HPLM + 10% dialyzed FBS, 0.000781 µM
[2] = HPLM + 10% dialyzed FBS, 0.00234 µM
[3] = HPLM + 10% dialyzed FBS, 0.00702 µM
[4] = HPLM + 10% dialyzed FBS, 0.0211 µM
[5] = HPLM + 10% dialyzed FBS, 0.0632 µM
[6] = HPLM + 10% dialyzed FBS, 0.19 µM
[7] = HPLM + 10% dialyzed FBS, 0.569 µM
[8] = HPLM + 10% dialyzed FBS, 1.71 µM
[9] = HPLM + 10% dialyzed FBS, 5.12 µM
[10] = HPLM + 10% dialyzed FBS, 15.4 µM
[11] = HPLM + 10% dialyzed FBS, 46.1 µM
[12] = RPMI 5 mM glucose + 10% FBS, 0.000781 µM
[13] = RPMI 5 mM glucose + 10% FBS, 0.00234 µM
[14] = RPMI 5 mM glucose + 10% FBS, 0.00702 µM
[15] = RPMI 5 mM glucose + 10% FBS, 0.0211 µM
[16] = RPMI 5 mM glucose + 10% FBS, 0.0632 µM
[17] = RPMI 5 mM glucose + 10% FBS, 0.19 µM
[18] = RPMI 5 mM glucose + 10% FBS, 0.569 µM
[19] = RPMI 5 mM glucose + 10% FBS, 1.71 µM
[20] = RPMI 5 mM glucose + 10% FBS, 5.12 µM
[21] = RPMI 5 mM glucose + 10% FBS, 15.4 µM
[22] = RPMI 5 mM glucose + 10% FBS, 46.1 µM
[23] = RPMI 5 mM glucose + 10% dialyzed FBS, 0.000781 µM
[24] = RPMI 5 mM glucose + 10% dialyzed FBS, 0.00234 µM
[25] = RPMI 5 mM glucose + 10% dialyzed FBS, 0.00702 µM
[26] = RPMI 5 mM glucose + 10% dialyzed FBS, 0.0211 µM
[27] = RPMI 5 mM glucose + 10% dialyzed FBS, 0.0632 µM
[28] = RPMI 5 mM glucose + 10% dialyzed FBS, 0.19 µM
[29] = RPMI 5 mM glucose + 10% dialyzed FBS, 0.569 µM
[30] = RPMI 5 mM glucose + 10% dialyzed FBS, 1.71 µM
[31] = RPMI 5 mM glucose + 10% dialyzed FBS, 5.12 µM
[32] = RPMI 5 mM glucose + 10% dialyzed FBS, 15.4 µM
[33] = RPMI 5 mM glucose + 10% dialyzed FBS, 46.1 µM

## CC(C)n1nc(-c2ccc3oc(N)nc3c2)c2c(N)ncnc21
NOMO1; [1]
  cell viability: 96.9%
NOMO1; [2]
  cell viability: 75.9%
NOMO1; [3]
  cell viability: 65.1%
NOMO1; [4]
  cell viability: 62.6%
NOMO1; [5]
  cell viability: 55.3%
NOMO1; [6]
  cell viability: 53.6%
NOMO1; [7]
  cell viability: 52.2%
NOMO1; [8]
  cell viability: 55%
NOMO1; [9]
  cell viability: 50.6%
NOMO1; [10]
  cell viability: 33.1%
NOMO1; [11]
  cell viability: 26.3%
NOMO1; [12]
  cell viability: 93.1%
NOMO1; [13]
  cell viability: 96.5%
NOMO1; [14]
  cell viability: 83.3%
NOMO1; [15]
  cell viability: 77.6%
NOMO1; [16]
  cell viability: 66.6%
NOMO1; [17]
  cell viability: 59.2%
NOMO1; [18]
  cell viability: 56.8%
NOMO1; [19]
  cell viability: 50.3%
NOMO1; [20]
  cell viability: 49.9%
NOMO1; [21]
  cell viability: 38.7%
NOMO1; [22]
  cell viability: 34.4%
NOMO1; [23]
  cell viability: 83.4%
NOMO1; [24]
  cell viability: 74.5%
NOMO1; [25]
  cell viability: 67.2%
NOMO1; [26]
  cell viability: 58.5%
NOMO1; [27]
  cell viability: 59.6%
NOMO1; [28]
  cell viability: 52.6%
NOMO1; [29]
  cell viability: 51.7%
NOMO1; [30]
  cell viability: 48.6%
NOMO1; [31]
  cell viability: 43.2%
NOMO1; [32]
  cell viability: 35.7%
NOMO1; [33]
  cell viability: 31.3%
P12-Ichikawa; [1]
  cell viability: 95.5%
P12-Ichikawa; [2]
  cell viability: 91%
P12-Ichikawa; [3]
  cell viability: 86.3%
P12-Ichikawa; [4]
  cell viability: 79.7%
P12-Ichikawa; [5]
  cell viability: 78%
P12-Ichikawa; [6]
  cell viability: 75%
P12-Ichikawa; [7]
  cell viability: 68.7%
P12-Ichikawa; [8]
  cell viability: 67.2%
P12-Ichikawa; [9]
  cell viability: 66.7%
P12-Ichikawa; [10]
  cell viability: 59.9%
P12-Ichikawa; [11]
  cell viability: 44.5%
P12-Ichikawa; [12]
  cell viability: 74.4%
P12-Ichikawa; [13]
  cell viability: 71.5%
P12-Ichikawa; [14]
  cell viability: 64.1%
P12-Ichikawa; [15]
  cell viability: 61.5%
P12-Ichikawa; [16]
  cell viability: 52%
P12-Ichikawa; [17]
  cell viability: 54.4%
P12-Ichikawa; [18]
  cell viability: 51%
P12-Ichikawa; [19]
  cell viability: 46.8%
P12-Ichikawa; [20]
  cell viability: 41.4%
P12-Ichikawa; [21]
  cell viability: 37.2%
P12-Ichikawa; [22]
  cell viability: 31.3%
P12-Ichikawa; [23]
  cell viability: 82.5%
P12-Ichikawa; [24]
  cell viability: 78.9%
P12-Ichikawa; [25]
  cell viability: 67.1%
P12-Ichikawa; [26]
  cell viability: 59.1%
P12-Ichikawa; [27]
  cell viability: 61.7%
P12-Ichikawa; [28]
  cell viability: 53.8%
P12-Ichikawa; [29]
  cell viability: 45%
P12-Ichikawa; [30]
  cell viability: 47.3%
P12-Ichikawa; [31]
  cell viability: 41.5%
P12-Ichikawa; [32]
  cell viability: 35.6%
P12-Ichikawa; [33]
  cell viability: 32%
SEM cells; [1]
  cell viability: 87.7%
SEM cells; [2]
  cell viability: 73.7%
SEM cells; [3]
  cell viability: 63.3%
SEM cells; [4]
  cell viability: 56.4%
SEM cells; [5]
  cell viability: 44.5%
SEM cells; [6]
  cell viability: 38.5%
SEM cells; [7]
  cell viability: 31.8%
SEM cells; [8]
  cell viability: 29.9%
SEM cells; [9]
  cell viability: 23.7%
SEM cells; [10]
  cell viability: 18.6%
SEM cells; [11]
  cell viability: 3.79%
SEM cells; [12]
  cell viability: 106%
SEM cells; [13]
  cell viability: 101%
SEM cells; [14]
  cell viability: 70.3%
SEM cells; [15]
  cell viability: 62.4%
SEM cells; [16]
  cell viability: 59.3%
SEM cells; [17]
  cell viability: 42.4%
SEM cells; [18]
  cell viability: 38.3%
SEM cells; [19]
  cell viability: 29.1%
SEM cells; [20]
  cell viability: 25.1%
SEM cells; [21]
  cell viability: 4.15%
SEM cells; [22]
  cell viability: 3.72%
SEM cells; [23]
  cell viability: 78.2%
SEM cells; [24]
  cell viability: 78.8%
SEM cells; [25]
  cell viability: 70.9%
SEM cells; [26]
  cell viability: 54.8%
SEM cells; [27]
  cell viability: 52.6%
SEM cells; [28]
  cell viability: 44%
SEM cells; [29]
  cell viability: 39.7%
SEM cells; [30]
  cell viability: 36.1%
SEM cells; [31]
  cell viability: 28.6%
SEM cells; [32]
  cell viability: 15.8%
SEM cells; [33]
  cell viability: 4.72%
